Data as given in patent US20250312292A1, “PHARMACEUTICAL COMPOSITION FOR USE IN THERAPEUTIC OR PROPHYLACTIC METHOD FOR KIDNEY INJURY, COMBINED MEDICINE CONTAINING SAID PHARMACEUTICAL COMPOSITION, AND CCBL1 INHIBITOR” (FUJITA ACADEMY, priority 2022, published 2025).
Where two headings read alike, the source gives them in different places.

Assays:
recombinant CCBL1 (KAT1) = target: T1, recombinant CCBL1 (KAT1) (Homo sapiens, UniProt Q16773); experiment: Screening of KAT1 (CCBL1) inhibitory activity, L-kynurenine fluorescence assay; assay type: biochemical; settings: for inhibition at 10 µM: 10 μM of the compound, 1 mM L-kynurenine, room temperature 2 hours; for CCBL1 (KAT1) inhibitory activity, in words: screening result
T1 construct: made in house; host or cells: Sf9 insect cells (baculovirus)
T1 sequence (Q16773 1-422): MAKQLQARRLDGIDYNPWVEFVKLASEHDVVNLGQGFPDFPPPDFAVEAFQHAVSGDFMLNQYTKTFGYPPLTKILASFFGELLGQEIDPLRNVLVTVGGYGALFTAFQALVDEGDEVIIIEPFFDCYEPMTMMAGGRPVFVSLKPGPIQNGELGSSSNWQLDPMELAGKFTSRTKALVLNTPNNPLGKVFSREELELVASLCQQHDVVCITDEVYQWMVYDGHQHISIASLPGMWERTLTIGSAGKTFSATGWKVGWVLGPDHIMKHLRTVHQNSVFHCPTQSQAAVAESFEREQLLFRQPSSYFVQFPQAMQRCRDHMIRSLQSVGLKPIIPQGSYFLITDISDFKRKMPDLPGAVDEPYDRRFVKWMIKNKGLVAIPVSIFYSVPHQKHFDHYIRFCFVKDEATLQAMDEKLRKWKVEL
Experimental: (§1) Sf9 cells infected with baculovirus containing human CCBL1 gene were centrifuged and thereby pelletized and dissolved in 50 mM phosphate buffer solution (pH 8.0) containing 300 mM NaCl and 10 mM imidazole. After ultrasonic treatment, the cell lysate was centrifuged at 10,000×g at 4° C. for 20 minutes, and recombinant CCBL1 in the supernatant was added to a pre-equalized Ni-NTA resin (QIAGEN). An enzyme/resin composite was transferred to a column and washed with a buffer solution containing 300 mM NaCl and 20 mM imidazole in 50 mM phosphate buffer solution (pH 8.0), and recombinant CCBL1 was eluted with a buffer solution (pH 8.0) containing 300 mM NaCl, 250 mM imidazole, and 50 mM phosphate. The enzyme fraction was pooled based on the purity determined by using SDS-PAGE and desalted by using a PD-10 column (GE Healthcare, U.K.)
The CCBL1 inhibitory compound was obtained by screening KAT1 inhibitory activity of compounds included in a compound library (The Spectrum Collection) provided by Center for Supporting Drug Discovery and Life Science Research in Graduate School of Pharmaceutical Sciences, Osaka University. Here, 10 ng/μl recombinant CCBL, 1 mM L-kynurenine, 1 mM sodium pyruvate, 100 μM PLP, and 0.005% Tween 20 mixture solution contained in 150 mM of 2-amino-2-methyl-1-propanol buffer solution were added to a 384-well plate containing 10 μM of the compound and then incubated at room temperature for 2 hours. Subsequently, 20 μL of 300 mM zinc acetate solution was added thereto, and the fluorescent intensities at an excitation wavelength 340 nm and a fluorescent wavelength 460 nm were measured by Infinite M1000 plate reader (TECAN). The Control without containing the compound was defined as reaction 100%, the Background without containing any enzyme was defined as reaction 0%, and the inhibitory activity of the compound (Sample) was calculated based on the following equation.

[1] = test system: cisplatin-induced kidney injury model mice; experiment: Cisplatin-induced kidney injury model mouse; settings: for BUN level in serum / Cre level in serum: compound 25, 50, 100 mg/kg i.p. 30 minutes before cisplatin 20 mg/kg, third day
Experimental: (§5) To create cisplatin-induced kidney injury model mice, cisplatin (20 mg/kg) was administered once by intraperitoneal administration to male C57BL/6J mice with the body weight of 20 to 25 g (Japan SLC). To examine the kidney protection effect (prophylactic effect) of the compounds expressed by formulae (2) and (3) (hereafter, simply referred to as “compound”) on a cisplatin-induced kidney injury, the compound was intraperitoneally administered with doses of 0, 25, 50, and 100 mg/kg 30 minutes before the cisplatin injection. The mice were sacrificed on the third day after the cisplatin injection. Samples of the blood and the kidneys were taken and preserved at −80° C. for further analysis.
(§6) The levels of creatinine (Cre) and blood urea nitrogen (BUN) in serum were measured by using a fully automated blood biochemistry analyzer (BioMajesty JCA-BM9130) in accordance with a manufacturer-instructed method.

recombinant human CCBL1 = target: T2, recombinant human CCBL1 (Homo sapiens, UniProt Q16773); experiment: Inhibition of CCBL1 beta-elimination activity by compound; assay type: biochemical; settings: recombinant human CCBL1, compound at different concentrations
T2 construct: made in house; host or cells: Sf9 insect cells (baculovirus)
T2 sequence (Q16773 1-422): T1 sequence (Q16773 1-422)
Experimental: as §1
The beta-elimination activity of CCBL1 was measured in accordance with a method described in “Arun Kumar Selvam et al., “A Novel Assay Method to Determine the—Elimination of Se-Methylselenocysteine to Monomethylselenol by Kynurenine Amino transferase 1” Antioxidants 2020, 9, 139; doi: 10. 3390/antiox 9020139″. […] Subsequently, 70 μL of the assay mixture was incubated at 37° C. for 10 minutes, 130 μL of 1M NaOH was added thereto, and the increase in the absorbance at 520 nm was measured by using a spectrophotometer (Nivo Multiplate Microplate Reader, PerkinElmer). […]

[2] = test system: tumor allograft model mice; experiment: Tumor allograft model mouse (Lewis lung cancer cells); assay type: in vivo
Experimental: Tumors were measured by using vernier calipers, and tumor volumes were calculated as a product of length by width by width. After the tumor reached a certain size, the compound (100 mg/kg) was intraperitoneally administered 30 minutes before the intraperitoneal administration of 20 mg/kg of cisplatin.
Renal tubular damage was scored as follows.

[3] = test system: cisplatin-induced kidney injury model mice; settings: mouse, in vivo
Experimental: as §5, §6

[4] = test system: CCBL1 overexpressed LLC/PK1 cells; experiment: Cell viability assay, cisplatin-induced renal tubular cell death; assay type: cell-based; settings: 24 hours
Experimental: (§2) LLC/PK1 (pig kidney epithelium), LLC (Lewis lung cancer), and MDA-MB-231 (human breast cancer) cells were obtained from JCRB cell bank (Japan). The LLC/PK1 cells were transfected by a human CCBL1 expression vector, CCBL1 stable overexpression cells were cloned into CCBL1 overexpressed LLC/PK1 cells, which were used for further experiments. The CCBL1 overexpressed LLC/PK1 cells were proliferated in 199/EBSS culture medium (10% FBS, 1% penicillin/streptomycin, and 400 μg/ml of G418), and LLC and MDA-MB-231 cells were proliferated at 37° C. under humidified atmosphere of 5% CO2 in DMEM culture medium (10% FBS and 1% penicillin/streptomycin).
(§3) A cell viability assay kit was used to measure the cell viability. […] The absorbance at 490 nm was measured by using a microplate reader (Molecular Devices, USA). The cell viability was calculated as a value of the absorbance of treated cells relative to the absorbance of untreated cells.
(§4) To examine whether or not the compound X prevents cisplatin-induced renal uriniferous tubular cell death, CCBL1 overexpressed LLC/PK1 cells were treated with different concentrations of cisplatin and the compound X for 24 hours, and the cell viability was evaluated by cell proliferation assay. The expression amount of human CCBL1 in LLC-PK1 cells was determined by immunoblotting. […]

[5] = test system: human breast cancer cell lines (MDA-MB-231 cells); experiment: Cell viability assay, cisplatin-induced tumor cell death; assay type: cell-based; settings: with cisplatin, 24 hours
Experimental: as §2, §3, §4

[6] = test system: Lewis lung cancer cell lines (LLC cells); experiment: as above; assay type: cell-based; settings: with cisplatin, 24 hours
Experimental: as §2, §3, §4

[7] = cisplatin 20 mg/kg i.p. alone, tumor-bearing mice
[8] = compound and cisplatin versus cisplatin alone
[9] = both cisplatin and compound administered
[10] = compound plus cisplatin, tumor-bearing mice

COc1cc(O)c(C(C)=O)c(O)c1 [4-O-METHYLPHLORACETOPHENONE, 4-O-methylphloracetophenone, reference compound]
inhibition at 10 µM (recombinant CCBL1 (KAT1)): 5.6%
CCBL1 (KAT1) inhibitory activity, in words (recombinant CCBL1 (KAT1)): exhibits little CCBL1 inhibitory activity

CCC(=O)c1c(O)cc(O)cc1O [FLOPROPIONE, 1-(2,4,6-trihydroxyphenyl) propan-1-one]
BUN level in serum [1]: reduced Cre and BUN in a dose dependent manner
Cre level in serum [1]: reduced Cre and BUN in a dose dependent manner
BUN level in serum, compound administered alone ([1]; compound alone, no cisplatin): no change was found in the Cre and BUN levels
Cre level in serum, compound administered alone ([1]; compound alone, no cisplatin): no change was found in the Cre and BUN levels
inhibitory activity to CCBL1 β elimination activity (recombinant human CCBL1): inhibited by flopropione in a concentration dependent manner
inhibition at 10 µM (recombinant CCBL1 (KAT1)): 71.9%

O=C(CCc1ccc(O)cc1)c1c(O)cc(O)cc1O [PHLORETIN, 3-(4-hydroxyphenyl)-1-(2,4,6-trihydroxyphenyl) propan-1-one]
inhibition at 10 µM (recombinant CCBL1 (KAT1)): 83%
CCBL1 (KAT1) inhibitory activity, in words (recombinant CCBL1 (KAT1)): has a CCBL1 inhibitory function

N.N.[Cl][Pt][Cl] [cisplatin]
BUN level in serum, cisplatin alone ([1]; cisplatin 20 mg/kg i.p. alone): increased the Cre and BUN levels
Cre level in serum, cisplatin alone ([1]; cisplatin 20 mg/kg i.p. alone): increased the Cre and BUN levels
body weight, cisplatin alone ([1]; cisplatin 20 mg/kg i.p. alone): reduced the body weight
relative kidney weight, cisplatin alone ([1]; cisplatin 20 mg/kg i.p. alone): increased the relative kidney weight
tumor size, cisplatin ([2]; cisplatin 20 mg/kg i.p.): reduced the tumor size
body weight, cisplatin alone [2, 7]: reduced the body weight
relative kidney weight, cisplatin alone [2, 7]: increased the relative kidney weight

CC(=O)c1c(O)cc(O)cc1O [compound X, 2,4,6-trihydroxyacetophenone]
relative kidney weight ([1]; both cisplatin (20 mg/kg i.p.) and compound administered): did not increase the relative kidney weight
BUN level in serum [1]: reduces the Cre and BUN levels in a dose dependent manner
Cre level in serum [1]: reduces the Cre and BUN levels in a dose dependent manner
BAX level in kidney (immunoblotting) [1, 8]: decreased
Cleaved Caspase-3 level in kidney (immunoblotting) [1, 8]: decreased
cisplatin-induced renal tubular cell death (histopathological observation, PAS stain) ([1]; compound plus cisplatin): suppresses the cisplatin-induced renal tubular cell death in a dose dependent manner
tubular injury score ([1]; group of cisplatin and compound versus only cisplatin): lower tubular injury scores than the group of only cisplatin
BUN level in serum, compound administered alone [3]: no change in the Cre and BUN levels was found
Cre level in serum, compound administered alone [3]: no change in the Cre and BUN levels was found
injury of renal uriniferous tubular cells, compound alone (histopathology) [3]: does not injure renal uriniferous tubular cells
inhibitory activity to CCBL1 β elimination activity (recombinant human CCBL1): inhibited by the compound X in a concentration dependent manner
body weight change [2, 9]: the body weight changed little
relative kidney weight [2, 9]: the relative kidney weight decreased
tumor size reduction by cisplatin when compound is co-administered ([2]; compound 100 mg/kg i.p. 30 minutes before cisplatin 20 mg/kg): this effect did not change
renal uriniferous tubular damage score ([2]; compound plus cisplatin versus cisplatin alone): reduces the renal uriniferous tubular damage score
BUN concentration in serum [2, 10]: reduced the increase in the cisplatin-induced BUN and Cre in a dose dependent manner
Cre concentration in serum [2, 10]: reduced the increase in the cisplatin-induced BUN and Cre in a dose dependent manner
inhibition at 10 µM (recombinant CCBL1 (KAT1)): 88.6%
LLC-PK1 cell death (cell viability) without cisplatin ([4]; cisplatin 0 μM): did not affect the LLC-PK1 cell death
cisplatin-induced renal tubular cell death (cell viability) ([4]; cisplatin 50 μM): prevented the cisplatin-induced renal tubular cell death in a dose dependent manner
cisplatin-induced tumor cell death (cell viability) [5]: did not affect the cisplatin-induced tumor cell death
cisplatin-induced tumor cell death (cell viability) [6]: did not affect the cisplatin-induced tumor cell death
